The values that follow come from US11358931B2, “Selective androgen receptor modulators (SARMs) and uses thereof” (priority 2007, dated 2022).

One data set has as its system cynomolgus monkeys. In words: 14-day oral toxicity study in cynomolgus monkeys. It counts as in vivo, cynomolgus monkey. Here is the method:
(§1) A study was performed to determine any potential toxicity and the toxicokinetic profile of Compound 102 when administered orally (via nasal gavage) to cynomolgus monkeys for at least 14 days. The cynomolgus monkey was chosen for this study as it is a non-rodent species that is commonly used for non-clinical toxicity evaluations. Use of the monkey model maximized the likelihood of identifying toxicological responses that may occur in humans. Ten experimentally naïve cynomolgus monkeys (5 male and 5 female) from about 2.5 to 3 years of age and weighing between about 2.3 to about 2.8 kg at Day −1 of the study were assigned to dose groups as shown in Table 6 below.
(§2) All animals were dosed via nasal gavage once daily for 14 consecutive days. The first day of dosing was designated Day 1 for all animals. The animals were evaluated for clinical signs (evaluation of mortality and morbidity, twice daily), cage side observations and food consumption (once daily), body weight (Days 1, 8 and 14), physical examination (Day −5 and post dosing following the 13/24 hour toxicokinetic collection on Day 14), ophthalmic examination (prestudy and owing the Day 13/24 hour toxicokinetic collection on Day 14), and clinical pathology parameters (serum chemistry, hematology and coagulation on Days −3 and 14), urine samples were collected during necropsy (Day 15) for urinalysis. Blood samples were collected for toxicokinetic analysis at 1, 2, 4, 8, 12 and 24 hours post dose on Days 1 and 13.
(§3) All ten animals were euthanized one day after the last dose. At termination, a full necropsy was conducted on all animals, and tissues were collected, preserved, processed and examined microscopically by an American College of Veterinary Pathologists (ACVP) certified pathologist.
(§4) Vehicle was composed of PEG 400/Tween® 80/PVP-K30 (90/5/5, w/w/w). Appropriate amounts of Compound 102 were added to vehicle to prepare the suspension of test compound administered to the animals
(§5) Blood samples for evaluation of serum chemistry, hematology and coagulation parameters were collected from all animals on Days −3 and 14. Urine samples were obtained by bladder puncture during necropsy. The animals were fasted for at east 8 hours prior to blood collections for serum chemistry. Serum chemistry parameters included alanine aminotransferase (ALT), total protein, aspartate aminotransferase (AST), alkaline phosphatase (ALP), gamma-glutamyltransferase (GGT), albumin, globulin, albumin/globulin ratio, lactate dehydrogenase (LD), glucose, total bilirubin, cholesterol, urea nitrogen (BUN), creatinine, triglycerides, sodium, calcium, potassium, phosphorus, chloride and carbon dioxide. Hematology parameters included red blood cell count, hemoglobin concentration, hematocrit, mean corpuscular volume (MCV), mean corpuscular hemoglobin concentration (MCHC), mean corpuscular hemoglobin (MCH), red cell distribution width, reticulocyte count, platelet count, mean platelet volume (MPV) and white blood cell count. Coagulation parameters included prothrombin time (PT) and activated partial thromboplastin time. Urinalysis parameters included color/character, specific gravity, pH, protein, glucose, ketones, bilirubin, occult blood and microscopics.

Data set [1] is described as follows: 14-day oral toxicity study in cynomolgus monkeys. The note with it: cynomolgus monkey, in vivo, oral, cynomolgus monkeys, nasal gavage once daily 14 days. The data set is classed as in vivo, cynomolgus monkey. The procedure:
as §1, §2, §3, §4, §5

Molecules are shown by their SMILES.

`N#Cc1ccc(N2CCC[C@@H]2[C@@H](O)C(F)(F)F)cc1C(F)(F)F` [Compound 102, R,R-4-(2-(1-Hydroxyl-2,2,2-trifluoroethyl)-pyrrolidinyl)-2-trifluoromethyl-benzonitrile]: in the data set on cynomolgus monkeys (5, 50 and 150 mg/kg males and females and 450 mg/kg female), the “platelet counts lower on Day 14 relative to Day −3” value is reported as 14% to 38%. In the data set on cynomolgus monkeys (Day 14, all dosed animals), the serum cholesterol concentration result is “decreased”. Moreover, in the data set with cynomolgus monkeys (Day 14, all dosed animals except the 5 mg/kg female), the “prothrombin time longer than Day −3” value fell in the range of 1.8 to 3.5 s. Further, in the data set with cynomolgus monkeys (all dose levels), the “microscopic findings (histopathology)” value is given as “no direct Compound 102-related microscopic findings”, the ophthalmic examinations entry is on record as “no Compound 102-related findings” and the urinalysis parameters entry was “no Compound 102-related effects”. The body weight entry in the data set on cynomolgus monkeys (all dosed animals relative to controls) is listed as “dose-independent increase in body weight”. Further, in the data set with cynomolgus monkeys (both sexes at 150 and 450 mg/kg), the gross necropsy findings result is “decreased thymus size and brown discoloration of the adrenals”. For the same molecule, in the data set with cynomolgus monkeys (cynomolgus monkeys, 14 days), the NOEL result is listed as “not achieved”. Besides, the “mortality, clinical signs, food consumption, histologic effects” value with cynomolgus monkeys (daily administration for 14 days, all dose levels) is “did not result in mortality, adverse clinical signs or changes in food consumption or histologic effects”. Moreover, the “serum ALT and AST activity” value with cynomolgus monkeys (female animal dosed with 450 mg/kg, after 14 days) is “elevated”. The thymus histology entry in the data set on cynomolgus monkeys (males at 150 mg/kg and above, females at 50 mg/kg and above, considered secondary to stress) was “Minimal to mild lymphoid cortical depletion of the thymus”. Besides, in data set [1] (female, females), the NOAEL (commonly the highest dose or exposure tested at which no adverse effect was seen) at 14 days was 150 mg/kg. The NOAEL at 14 days in data set [1] (male, males) amounted to 450 mg/kg.
